Like-named read-outs stand apart in the source and are kept apart here.
Test system: Klebsiella pneumoniae
Experiment: Checkerboard broth dilution synergy study (mic)
Assay type: cell-based
Conditions: for MIC: Klebsiella pneumoniae, read-out: mic, drug alone

SMILES: COC1(NC(=O)C(C(=O)O)c2ccc(O)cc2)C(=O)N2C(C(=O)O)=C(CSc3nnnn3C)COC21 (centres unmarked) [1-oxa compound I, moxalactam]
- MIC (Table II, strain 130): 0.5 µg/mL
- MIC (Table II, strain 214-1): 2 µg/mL
- MIC (Table II, strain 463): 2 µg/mL
- MIC (Table II, strain 512): 0.5 µg/mL
- MIC (Table II, strain 933): 0.25 µg/mL
- MIC (Table II, strain 1204-2): 2 µg/mL
- MIC (Table III, isolate 130): 0.5 µg/mL
- MIC (Table III, isolate 214-1): 2 µg/mL
- MIC (Table III, isolate 463): 2 µg/mL
- MIC (Table III, isolate 938): 0.25 µg/mL
- MIC (Table III, isolate 1231): 0.5 µg/mL
- mic of each drug in combination I + T (Table II, strain 130): < 0.012 µg/mL
- mic of each drug in combination I + P (Table II, strain 214-1): 0.5 µg/mL
- mic of each drug in combination I + T (Table II, strain 214-1): 0.012 µg/mL
- mic of each drug in combination I + P (Table II, strain 463): 2 µg/mL
- mic of each drug in combination I + T (Table II, strain 463): 0.012 µg/mL
- mic of each drug in combination I + P (Table II, strain 512): 0.5 µg/mL
- mic of each drug in combination I + T (Table II, strain 512): 0.012 µg/mL
- mic of each drug in combination I + T (Table II, strain 933): < 0.012 µg/mL
- mic of each drug in combination I + P (Table II, strain 1204-2): 0.5 µg/mL
- mic of each drug in combination I + T (Table II, strain 1204-2): 0.012 µg/mL
- mic of each drug in combination I + A (Table III, isolate 130): 0.5 µg/mL
- mic of each drug in combination I + A (Table III, isolate 214-1): < 0.06 µg/mL
- mic of each drug in combination I + A (Table III, isolate 463): 2 µg/mL
- mic of each drug in combination I + A (Table III, isolate 938): < 0.06 µg/mL
- mic of each drug in combination I + A (Table III, isolate 1231): 0.06 µg/mL

Source: US4452778A, “Synergistic antibacterial compositions and method of treatment of infections caused by multiple antibiotic-resistant organisms” (Eli Lilly and Company, priority 1981, dated 1984)
